Patent US20250092065A1, “2-(INDAZOL-5-YL)-6-(PIPERIDIN-4-YL)-1,7-NAPHTHYRIDINE DERIVATIVES AND RELATED COMPOUNDS AS MODULATORS FOR SPLICING NUCLEIC ACIDS AND FOR THE TREATMENT OF PROLIFERATIVE DISEASES” (REMIX THERAPEUTICS INC., priority 2022, published 2025)
Where two headings read alike, the source gives them in different places.

Tests used:
Target C = assay: RT-qPCR canonical junction panel assay, Target C mRNA; format: cell-based; details: Table 4, read-out: Target C IC50 (decrease in CJ mRNA levels)
How it was run: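 IC50 is the concentration giving 50% CJ decrease, from a 4-parameter logistic fit of percent response; response derived from ΔΔCt against housekeeper and DMSO over a fixed ΔCt window, with canonical exon-junction qPCR in compound-treated K562 or A673 cells.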

HTT mRNA = assay: RT-qPCR splicing assay, HTT mRNA canonical (CJ) and alternative (AJ) junction; format: cell-based, human; details: Homo sapiens; for AC50: HTT alternative junction mRNA, read-out: HTT AJ (increase in AJ mRNA, AC50)
How it was run: (§1)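 Both isoforms, CJ and AJ, read by qPCR from crude lysates of treated A673 or K562 cells; 24 h, 37 °C, maximum 10 uM. Normalization: housekeeper ΔCt, then DMSO ΔΔCt.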

SMN2 mRNA = assay: RT-qPCR splicing assay, SMN2 mRNA; format: cell-based, human; details: Homo sapiens, canonical junction qPCR panel, Table 4; read-out: SMN2 IC50 (decrease in CJ mRNA levels)
How it was run: as §1

K562 cells = assay: Cell Titer Glo 2.0 cell viability (toxicity) assay, K562; details: 500 cells/well, 72 hours
[1] = HTT canonical junction mRNA, RT-qPCR, read-out: HTT CJ (decrease in CJ mRNA levels, IC50)
[2] = canonical junction qPCR panel, Table 4, read-out: HTT IC50 (decrease in CJ mRNA levels)

Compound | IC50 (Target C) | AC50 (HTT mRNA; RT-qPCR) | IC50 (HTT mRNA; [1]) | IC50 (HTT mRNA; [2]) | IC50 (SMN2 mRNA) | Effect of Exemplary Compounds on Cell Viability, K562 (K562 cells)
Cn1cc2cc(-c3ccc4nc([C@@H]5CCNC6(CC6)C5)ccc4n3)c(O)cc2n1 (single isomer, unassigned) [Compound 495] | 100 to 1000 nM | < 100 nM | < 100 nM | < 100 nM | < 100 nM | B (B represents 100-1000 nM)
Cn1cc2cc(-c3ccc4nc([C@H]5CCNC6(CC6)C5)ccc4n3)c(O)cc2n1 (single isomer, unassigned) [Compound 496] | 100 to 1000 nM | < 100 nM | 100 to 1000 nM | 100 to 1000 nM | < 100 nM | B (B represents 100-1000 nM)
Cc1nc2cc(O)c(-c3ccc4nc([C@H]5CCNC6(CC6)C5)ccc4n3)cc2o1 (single isomer, unassigned) [Compound 497] | < 100 nM | < 100 nM | < 100 nM | < 100 nM | < 100 nM | A (A represents <100 nM)
Cc1nc2cc(O)c(-c3ccc4nc([C@@H]5CCNC6(CC6)C5)ccc4n3)cc2o1 (single isomer, unassigned) [Compound 498] | 100 to 1000 nM | < 100 nM | < 100 nM | < 100 nM | < 100 nM | B (B represents 100-1000 nM)
CN[C@@H]1CCN(c2ccc3nc(-c4cn5cc(C)nc5c(C)c4O)ncc3n2)C1 (single isomer, unassigned) [Compound 504] | 100 to 1000 nM | 100 to 1000 nM | 100 to 1000 nM | 100 to 1000 nM | < 100 nM | B (B represents 100-1000 nM)
CNC(=O)c1nc(-c2cc3cn(C)nc3c(C)c2O)nc2ccc(N3CCN[C@@H](C)C3)cc12 (single isomer, unassigned) [Compound 512] | 1000 to 10000 nM | 100 to 1000 nM | 100 to 1000 nM | 100 to 1000 nM | < 100 nM | A (A represents <100 nM)
CN[C@@H]1CCN(c2ccc3nc(-c4cc5cn(C)nc5c(C)c4O)ncc3c2)C1 (single isomer, unassigned) [Compound 521] | 100 to 1000 nM | 100 to 1000 nM | < 100 nM | < 100 nM | < 100 nM | A (A represents <100 nM)
CNC(=O)c1nc(-c2cc3cn(C)nc3c(C)c2O)nc2ccc(N3C[C@@H](C)N[C@H](C)C3)cc12 (single isomer, unassigned) [Compound 653] | 100 to 1000 nM | 100 to 1000 nM | < 100 nM | < 100 nM | < 100 nM | A (A represents <100 nM)
Cc1c(O)c(-c2ncc3cc(N4C[C@@H](C)N[C@H](C)C4)ccc3n2)cc2cn(C)nc12 (single isomer, unassigned) [Compound 661] | 100 to 1000 nM | 1000 to 10000 nM | 100 to 1000 nM | 100 to 1000 nM | < 100 nM | B (B represents 100-1000 nM)
CNC(=O)c1nc(-c2cc3cn(C)nc3c(F)c2O)nc2ccc(N3C[C@@H](C)N[C@H](C)C3)cc12 (single isomer, unassigned) [Compound 668] | 1000 to 10000 nM | 1000 to 10000 nM | 100 to 1000 nM | 100 to 1000 nM | < 100 nM | A (A represents <100 nM)
CNC(=O)c1nc(-c2cc3cn(C)nc3c(F)c2O)nc2ccc(N3C[C@H](C)N[C@@H](C)C3)cc12 (single isomer, unassigned) [Compound 669] | 1000 to 10000 nM | 100 to 1000 nM | 100 to 1000 nM | 100 to 1000 nM | < 100 nM | A (A represents <100 nM)
CNC(=O)c1nc(-c2cc3cn(C)nc3cc2O)nc2ccc(N3C[C@H](C)N[C@@H](C)C3)cc12 (single isomer, unassigned) [Compound 676] | > 10000 nM | 100 to 1000 nM | 100 to 1000 nM | 100 to 1000 nM | < 100 nM | A (A represents <100 nM)
CNC(=O)c1nc(-c2cc3cn(C)nc3cc2O)nc2ccc(N3C[C@@H](C)N[C@H](C)C3)cc12 (single isomer, unassigned) [Compound 677] | 1000 to 10000 nM | 1000 to 10000 nM | 100 to 1000 nM | 100 to 1000 nM | < 100 nM | B (B represents 100-1000 nM)
Cc1cn2cc(-c3ccc4cc(N5C[C@H](C)N[C@@H](C)C5)cc(F)c4n3)cc(F)c2n1 (single isomer, unassigned) [Compound 705, 2,2,2-trifluoroacetate] | 100 to 1000 nM | 100 to 1000 nM | 100 to 1000 nM | 100 to 1000 nM | – | A (A represents <100 nM)
Cn1cc2cc(-c3ncc4nc(C5CCNCC5)ccc4n3)c(O)c(F)c2n1 [Compound 155] | 100 to 1000 nM | < 100 nM | < 100 nM | < 100 nM | < 100 nM | A (A represents <100 nM)
Cc1nc2cc(O)c(-c3ccc4nc(N5CCNC(C(C)(C)C)C5)ccc4n3)cc2o1 (centres unmarked) [Compound 492] | 1000 to 10000 nM | 100 to 1000 nM | 100 to 1000 nM | 100 to 1000 nM | < 100 nM | C (C represents 1000-9999 nM)
Cc1nc2cc(O)c(-c3ccc4nc(N5CC[C@@H](N(C)C(C)(C)C)C5)ccc4n3)cc2o1 [Compound 493] | < 100 nM | < 100 nM | < 100 nM | < 100 nM | < 100 nM | A (A represents <100 nM)
Cc1c(O)c(-c2nc(C(=O)N(C)C)c3cc(N4CCNCC4)ccc3n2)cc2cn(C)nc12 [Compound 502, 2-(6-hydroxy-2,7-dimethylindazol-5-yl)-N,N-dimethyl-6-(piperazin-1-yl)quinazoline-4-carboxamide] | 1000 to 10000 nM | 1000 to 10000 nM | 1000 to 10000 nM | 1000 to 10000 nM | 100 to 1000 nM | C (C represents 1000-9999 nM)
CNC(=O)c1nc(-c2cc3cn(C)nc3c(F)c2O)nc2ccc(N3CCNCC3)cc12 [Compound 506, 2-(7-fluoro-6-hydroxy-2-methylindazol-5-yl)-N-methyl-6-(piperazin-1-yl)quinazoline-4-carboxamide] | 100 to 1000 nM | 100 to 1000 nM | < 100 nM | < 100 nM | < 100 nM | –
CNc1nc(-c2cc3cn(C)nc3c(C)c2O)nc2ccc(N3CCNCC3)cc12 [Compound 508, 2,7-dimethyl-5-[4-(methylamino)-6-(piperazin-1-yl)quinazolin-2-yl]indazol-6-ol] | > 10000 nM | > 10000 nM | > 10000 nM | > 10000 nM | 100 to 1000 nM | –
Cc1c(O)c(-c2nc(N(C)C)c3cc(N4CCNCC4)ccc3n2)cc2cn(C)nc12 [Compound 509, 5-[4-(dimethylamino)-6-(piperazin-1-yl)quinazolin-2-yl]-2,7-dimethylindazol-6-ol] | > 10000 nM | > 10000 nM | > 10000 nM | > 10000 nM | 100 to 1000 nM | –
